One data set addresses AChE peripheral site (Bos taurus, UniProt P23795). Briefly: Propidium competition (fluorescence). Format: binding. The conditions noted are these: 10 μM AchE, 20 μM propidium iodide, pH 8.0. As for the experimental part: Fluorescence was measured in a Fluostar optima plate reader (BMG). Measurements were carried out in 100 μl solution volume, in 96-well plates. The buffer used wad 1 mM Tris/HCl, pH 8.0. 10 μM AchE was incubated, at least 6 hours, with the molecules at different concentrations. 20 μM propidium iodide was added 10 min before fluorescence measurement. The excitation wavelength was 485 nm, and that of emission, 620 nm.

For a further data set, the target named is T1, BuChE from human serum (Homo sapiens, UniProt P06276).
T1 construct: 0.01 unit BuChE from human serum; from tissue; host or cells: human serum
Briefly: Butyrylcholinesterase (BuChE) inhibition, Ellman colorimetric method. Format: biochemical. As for the experimental part: Butyrylcholinesterase (BuChE) Inhibition (from Human Serum)
BuChE inhibitory activity was evaluated at 30° C. by the colorimetric method reported by Ellman. The assay solution consisted of 0.01 unit BuChE from human serum, 0.1 M sodium phosphate buffer pH 8, 0.3 mM 5,5′-dithiobis(2-nitrobenzoic acid) (DTNB, Ellman's reagent), and 0.5 mM butyrylthiocholine iodide as the substrate of the enzymatic reaction. Enzyme activity was determined by measuring the absorbance at 405 nm during 5 minutes with a microplate reader Digiscan 340T. The tested compounds were preincubated with the enzyme for 10 minutes at 30° C. The reaction rate was calculated with, at least, triplicate measurements. The IC50 is defined as the concentration of each compound that reduces a 50% the enzymatic activity with respect to that without inhibitor.
(In general: In Ellman's method for cholinesterases, released thiocholine reacts with DTNB.)

For data set [1], the target named is T2, AChE (from bovine erythrocytes) (Bos taurus, UniProt P23795).
T2 construct: 0.02 unit AChE (Sigma Chemical Co. from bovine erythrocytes); purchased Sigma Chemical Co; host or cells: bovine erythrocytes (natural source)
The data set can be described thus: biochemical. The data set is classed as biochemical. As for the experimental part: Acetylcholinesterase (AChE) Inhibition (from Bovine Erythrocytes)
AChE inhibitory activity was evaluated at 30° C. by the colorimetric method reported by Ellman [Ellman, G. L.; Courtney, K. D.; Andres, B.; Featherstone, R. M. Biochem. Pharmacol. 1961, 7, 88-95]. The assay solution consisted of 0.1 M phosphate buffer pH 8, 0.3 mM 5,5′-dithiobis(2-nitrobenzoic acid) (DTNB, Ellman's reagent), 0.02 unit AChE (Sigma Chemical Co. from bovine erythrocytes), and 0.5 mM acetylthiocholine iodide as the substrate of the enzymatic reaction. The compounds tested were added to the assay solution and pre incubated with the enzyme for 5 min at 30° C. After that period, the substrate was added. […] The compound concentration producing 50% of AChE inhibition (IC50) was determined.

For data set [2], the system named is human neuroblastoma cell line SH-SY5Y. The data set can be described thus: Toxicity measurement (LDH release). The data set is classed as cell-based. The conditions noted are these: 24 hours exposure. As for the experimental part: The cytotoxicity effect of the molecules was tested in the human neuroblastoma cell line SH-SY5Y. These cells were cultured in 96-well plates in DULBECCO'S MOD EAGLE medium, supplemented with 10% fetal bovine serum and 1% penicillin/streptomycin, and grown in a 5% CO2 humidified incubator at 37° C.
The cells were plated at 10^4 cells for each well, at least, 48 hours before the toxicity measure. Cells were exposed for 24 hours to the compounds at different concentrations (from 10^−5 to 10^−9), quantitative assessment of cell death was made by measurement of the intracellular enzyme lactate dehydrogenase (LDH) (citotoxicity detection kit, Roche). The quantity of LDH was evaluated in a microplate reader Anthos 2010, at 492 and 620 nm. Controls were taken as 100% viability.

The target in data set [3] is T3, β-amyloid-huAChE aggregation complex (Homo sapiens, UniProt P22303).
T3 construct: purchased Sigma-Aldrich (huAChE); rPeptide (Aβ1-40)
The data set can be described thus: Inhibition of β-amyloid aggregation (Congo Red binding). The data set is classed as biochemical. The conditions noted are these: 50 μM propidium iodide as reference; Aβ1-40 0.1 mM, Aβ:huAChE 200:1, 48 hours. As for the experimental part: Inhibition of β-Amyloid Aggregation
The generation of AChE-Aβ complexes were carried out as described previously [Alvarez, A et al. J. Neurosci., 1998, 18, 3213-3223; Muñoz, F. J.; Inestrosa, N. C. FEBS Let., 1999, 450, 205-209]. Stock solutions of Aβ1-40 (rPeptide, Georgia USA) at 3.5 mM were dissolved in PBS (pH 7.4) after HFIP treatment to obtain monomeric starting material, according to manufacture's recommendations. For co-incubation experiments, 0.1 mM of peptide was mixed with human recombinant acetylcholinesterase (huAchE, Sigma-Aldrich), in the same buffer at molar ratio Aβ:huAChE 200:1, and stirred for 48 hours in a microtiter plate at room temperature. The fibrils obtained were characterized by Congo Red (CR) binding.
For the inhibition of β-amyloid aggregation, the compounds tested were used at the IC50 defined in the previous paragraph of the biological evaluation, 50 μM propidium iodide was used as reference [Inestrosa, N. C et al., J. Neuron, 1996, 16, 881-891].
To quantify the amount of fibrils aggregated, the binding to CR was done as described [Klunk, W E.; Pettegrew, J W.; Abraham, D J. J. Hystochem Cytochem., 1989, 8, 1293-1297]. Briefly, 5.5 μl aliquot of the aggregation mixture was added to 132 μl of a 25 μM CR solution (100 mM phosphate buffer pH 7.4, 150 mM NaCl), and incubated for 30 minutes at room temperature. Absorbance was measured at 480 and 540 nm and the molarity of aggregates calculated by CR(M)=(A540/25295)−(A480/46306).

Setting [4] is: BuChE from human serum, 30° C., pH 8, read-out: IC50 BuChE.
Where [5] appears, read: AChE from bovine erythrocytes, 30° C., pH 8, read-out: IC50 AChE.

Where two headings read alike, the source gives them in different places.

T2 sequence (P23795 other isoform, or with tags, fused parts or gaps): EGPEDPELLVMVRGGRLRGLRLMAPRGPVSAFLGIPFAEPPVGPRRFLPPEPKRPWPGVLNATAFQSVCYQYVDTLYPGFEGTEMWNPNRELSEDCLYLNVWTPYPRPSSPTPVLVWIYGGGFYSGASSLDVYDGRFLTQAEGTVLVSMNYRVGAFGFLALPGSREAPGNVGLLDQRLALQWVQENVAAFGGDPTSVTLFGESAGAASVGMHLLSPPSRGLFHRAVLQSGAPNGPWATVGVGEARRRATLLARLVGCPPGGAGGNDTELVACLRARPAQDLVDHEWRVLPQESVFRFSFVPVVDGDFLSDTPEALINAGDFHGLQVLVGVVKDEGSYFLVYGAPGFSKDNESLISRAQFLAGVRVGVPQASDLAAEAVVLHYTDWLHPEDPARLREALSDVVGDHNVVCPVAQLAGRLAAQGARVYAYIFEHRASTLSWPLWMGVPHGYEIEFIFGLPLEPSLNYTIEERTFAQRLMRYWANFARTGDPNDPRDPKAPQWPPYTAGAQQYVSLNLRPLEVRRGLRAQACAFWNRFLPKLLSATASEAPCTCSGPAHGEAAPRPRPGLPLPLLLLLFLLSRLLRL
Sequence of AChE peripheral site (P23795 other isoform, or with tags, fused parts or gaps): as above
T1 sequence (P06276 29-602): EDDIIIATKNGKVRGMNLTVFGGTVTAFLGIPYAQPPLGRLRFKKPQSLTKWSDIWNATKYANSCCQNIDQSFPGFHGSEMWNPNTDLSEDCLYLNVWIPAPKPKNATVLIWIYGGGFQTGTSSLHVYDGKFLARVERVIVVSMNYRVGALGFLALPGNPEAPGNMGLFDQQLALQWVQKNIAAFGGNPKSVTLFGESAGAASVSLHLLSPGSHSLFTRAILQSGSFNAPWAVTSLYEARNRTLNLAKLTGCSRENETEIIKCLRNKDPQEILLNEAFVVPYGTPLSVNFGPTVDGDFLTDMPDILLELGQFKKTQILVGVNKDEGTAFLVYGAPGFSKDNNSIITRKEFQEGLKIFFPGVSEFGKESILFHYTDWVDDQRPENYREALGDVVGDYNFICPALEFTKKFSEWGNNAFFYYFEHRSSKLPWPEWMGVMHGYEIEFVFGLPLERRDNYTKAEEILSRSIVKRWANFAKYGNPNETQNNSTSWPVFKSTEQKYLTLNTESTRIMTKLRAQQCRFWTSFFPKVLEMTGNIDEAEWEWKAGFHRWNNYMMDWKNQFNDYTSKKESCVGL
T3 sequence (P22303 32-614, one chain of several): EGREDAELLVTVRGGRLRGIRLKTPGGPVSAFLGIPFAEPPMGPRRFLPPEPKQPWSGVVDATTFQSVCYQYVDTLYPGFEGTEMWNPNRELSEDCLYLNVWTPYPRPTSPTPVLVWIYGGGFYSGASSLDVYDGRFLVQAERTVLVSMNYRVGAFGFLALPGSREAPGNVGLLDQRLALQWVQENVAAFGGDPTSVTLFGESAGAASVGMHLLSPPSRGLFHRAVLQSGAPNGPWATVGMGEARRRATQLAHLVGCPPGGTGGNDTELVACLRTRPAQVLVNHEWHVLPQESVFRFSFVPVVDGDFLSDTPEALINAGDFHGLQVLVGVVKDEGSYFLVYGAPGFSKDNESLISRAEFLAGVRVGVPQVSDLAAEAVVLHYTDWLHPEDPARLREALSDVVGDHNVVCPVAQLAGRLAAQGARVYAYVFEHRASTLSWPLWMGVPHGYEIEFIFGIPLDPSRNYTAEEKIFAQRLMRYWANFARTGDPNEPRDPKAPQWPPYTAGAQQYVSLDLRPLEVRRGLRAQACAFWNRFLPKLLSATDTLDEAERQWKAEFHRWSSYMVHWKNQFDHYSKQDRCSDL

In turn, `O=C(NCCCCCNc1c2c(nc3cc(Cl)ccc13)CCCC2)c1c[nH]c2ccccc12` [Compound 10, 1H-Indole-3-carboxylic acid [5-(6-chloro-1,2,3,4-tetrahydro-acridin-9-ylamino)-pentyl]-amide] gave a Propidium competition at AChE peripheral site of 100 µM. Moreover, the IC50 on BuChE from human serum (setting [4]) was 9.5 nM; in data set [1] (setting [5]), 180 nM. Moreover, the Toxicity in data set [2] is >10 µM.
With `O=C(NCCCCCCCNc1c2c(nc3cc(Cl)ccc13)CCCC2)c1n[nH]c2ccccc12` [Compound 21, 1H-Indazole-3-carboxylic acid [7-(6-chloro-1,2,3,4-tetrahydroacridin-9-ylamino)heptyl]-amide], at AChE peripheral site, the Propidium competition was found to be 100 µM. For the same compound, the IC50 at BuChE from human serum (setting [4]) was 79 nM; in data set [1] (setting [5]), 95 nM. For the same compound, the Toxicity in data set [2] was >10 µM.
On to `Clc1ccc2c(NCCc3c[nH]c4ccccc34)c3c(nc2c1)CCCC3` [Comparative Example, N-[2-3(Indolyl)ethyl]-6-chlorotacrine, reference compound], for which the IC50 in data set [1] (setting [5]) was 537 nM.
Take `O=C(NCCCCCCNc1c2c(nc3cc(Cl)ccc13)CCCC2)c1c[nH]c2ccccc12` [Compound 11, 1H-Indole-3-carboxylic acid [6-(6-chloro-1,2,3,4-tetrahydro-acridin-9-ylamino)-hexyl]-amide]: the Propidium competition on AChE peripheral site stood at 100 µM. In addition, the IC50 stood at 1.7 nM on BuChE from human serum (setting [4]) and 33 nM in data set [1] (setting [5]). The Toxicity in data set [2] was >10 µM.
As to `O=C(CCc1c[nH]c2ccccc12)NCCCCCCCCCNc1c2c(nc3cc(Cl)ccc13)CCCC2` [Compound 6, N-[9-(6-Chloro-1,2,3,4-tetrahydro-acridin-9-ylamino)-nonyl]-3-(1H-indol-3-yl)-propionamide], the Propidium competition on AChE peripheral site was >100 µM. In addition, the IC50 at BuChE from human serum (setting [4]) amounted to 9.6 nM. Also, in data set [2], the Toxicity was >100 µM.
As to `O=C(CCc1c[nH]c2ccccc12)NCCCCCNc1c2c(nc3ccccc13)CCCC2` [Compound 2, 3-(1H-Indol-3-yl)-N-[5-(1,2,3,4-tetrahydro-acridin-9-ylamino)-pentyl]-propionamide], the Propidium competition on AChE peripheral site was determined as 10 µM. In addition, the IC50 at BuChE from human serum (setting [4]) was 1 nM; in data set [1] (setting [5]), 70 nM. Also, the Toxicity in data set [2] was >100 µM.
`CN(CCCNC(=O)CCc1c[nH]c2ccccc12)CCCNc1c2c(nc3cc(Cl)ccc13)CCCC2` [Compound 9, N-(3-{[3-(6-chloro-1,2,3,4-tetrahydro-acridin-9-ylamino)-propyl]-methyl-amino}-propyl)-3-(1H-indol-3-yl)-propionamide] came in with a Propidium competition at AChE peripheral site of 10 µM. Moreover, the IC50 on BuChE from human serum (setting [4]) stood at 7.57 nM; in data set [1] (setting [5]), 2.88 nM. Further, the Toxicity in data set [2] is >100 µM.
Take `O=C(Cc1c[nH]c2ccc(Br)cc12)NCCCCCCCNc1c2c(nc3cc(Cl)ccc13)CCCC2` [Compound 18, 2-(5-Bromo-1H-indol-3-yl)-N-[7-(6-chloro-1,2,3,4-tetrahydro-acridin-9-ylamino)-heptyl]-acetamide]: the Propidium competition on AChE peripheral site worked out at 100 µM. Besides, the IC50 was determined as 1.7 nM at BuChE from human serum (setting [4]) and 0.63 nM in data set [1]. Also, in data set [2], the Toxicity is >10 µM.
In the case of `CC[N+](C)(CC)CCC[n+]1c(-c2ccccc2)c2cc(N)ccc2c2ccc(N)cc21` [propidium iodide, reference compound], the “reduction in the β-amyloid-huAChE aggregation complex” value in data set [3] came to 10%.
`O=C(CCc1c[nH]c2ccccc12)NCCCCCCCCNc1c2c(nc3cc(Cl)ccc13)CCCC2` [Compound 5, N-[8-(6-Chloro-1,2,3,4-tetrahydro-acridin-9-ylamino)-octyl]-3-(1H-indol-3-yl)propionamide]: the Propidium competition at AChE peripheral site was 10 µM. In addition, the IC50 at BuChE from human serum (setting [4]) turned out to be 5.7 nM; in data set [1] (setting [5]) it was 0.5 nM. This compound also gave a Toxicity in data set [2] of 10 µM.
Compound `O=C(CCCc1c[nH]c2ccccc12)NCCCCCCNc1c2c(nc3cc(Cl)ccc13)CCCC2` [Compound 16, N-[6-(6-Chloro-1,2,3,4-tetrahydro-acridin-9-ylamino)-hexyl]4-(1H-Indol-3-yl)-butyramide] registered a Propidium competition at AChE peripheral site of 100 µM. Also, the IC50 at BuChE from human serum (setting [4]) came to 5.6 nM; in data set [1] (setting [5]) it was 0.48 nM. Further, the Toxicity in data set [2] was >10 µM.
Taken in the same sequence, the figures for `O=C(NCCCCCCCNc1c2c(nc3cc(Cl)ccc13)CCCC2)c1c[nH]c2ccccc12` [Compound 12, 1H-Indole-3-carboxylic acid [7-(6-chloro-1,2,3,4-tetrahydro-acridin-9-ylamino)-heptyl]-amide] were 100 µM, 19 nM, 36 nM and >10 µM.
The corresponding values for `O=C(NCCCCCCCCNc1c2c(nc3cc(Cl)ccc13)CCCC2)c1c[nH]c2ccccc12` [Compound 13, 1H-Indole-3-carboxylic acid [8-(6-chloro-1,2,3,4-tetrahydro-acridin-9-ylamino)octyl]-amide] are 10 µM, 22.4 nM, 46 nM and >10 µM.
The corresponding values for `O=C(CCc1c[nH]c2ccccc12)NCCCCCCCNc1c2c(nc3cc(Cl)ccc13)CCCC2` [Compound 4, N-[7-(6-Chloro-1,2,3,4-tetrahydro-acridin-9-ylamino)-heptyl]-3-(1H-indol-3-yl)-propionamide] are 10 µM, 0.1 nM, 0.06 nM and 10 µM.
For `O=C(CCc1c[nH]c2ccccc12)NCCCCCCCCCCNc1c2c(nc3cc(Cl)ccc13)CCCC2` [Compound 7, N-[10-(6-Chloro-1,2,3,4-tetrahydro-acridin-9-ylamino)-decyl]-3-(1H-indol-3-yl)-propionamide], on AChE peripheral site, the Propidium competition worked out at 10 µM. Also, the IC50 was determined as 54 nM at BuChE from human serum (setting [4]) and 21.9 nM in data set [1] (setting [5]). In addition, in data set [2], the Toxicity was >100 µM.
Compound `O=C(NCCCCCCNc1c2c(nc3cc(Cl)ccc13)CCCC2)OCCc1c[nH]c2ccccc12` [Compound 24, [6-(6-Chloro-1,2,3,4-tetrahydro-acridin-9-ylamino)-hexyl]-carbamic Acid 2-(1h-indol-3-yl)ethyl Ester] returned a Propidium competition on AChE peripheral site of 100 µM. Further, the IC50 against BuChE from human serum came out at 3.2 nM; in data set [1] (setting [5]), 0.7 nM. Besides, the Toxicity in data set [2] is >10 µM.

A word on the IC50: it is the midpoint of a concentration-inhibition curve.

The values are drawn from US7910739B2, “Acetylcholinesterase dual inhibitors” (priority 2003, dated 2011).
